Measurements from US3954985A, “Method for inhibiting bacterial growth with certain selected 3-chloro-tetrahydro-1,3-oxazines or oxazolidines” (INTERx Research Corporation, priority 1975, dated 1976).
Values joined by “and” are separate entries in the source; they are usually repeats but may differ in a detail not shown here. Equal entries are not always repeated. Structures can show the parent of a compound that is named as a salt.

Assay: Stability in the neat state at 40°C (positive chlorine by thiosulfate titration)
Assay type: physicochemical
Conditions: HYDROCHLORIDE
Text: ^a Weight of sample analyzed.
^b Volume of 10^^-2 N sodium thiosulfate required to titrate
the sample at time (T).
^c Percentage of positive chlorine in the sample analyzed.

CN1CCC2(CC1)OCC(C)(C)N2Cl [3-CHLORO-2,2-[SPIRO-1'-METHYL-4'-PIPERIDINIUM]4,4-DIMETHYL-1,3-OXAZOLIDINE HYDROCHLORIDE]
%Cl (percentage of positive chlorine in the sample analyzed) (0 days): 13.7% and 13.1%
%Cl (percentage of positive chlorine in the sample analyzed) (1 day): 12.3% and 12.5%
%Cl (percentage of positive chlorine in the sample analyzed) (2 days): 12.3% and 11.9%
%Cl (percentage of positive chlorine in the sample analyzed) (3 days): 12.5% and 12.2%
%Cl (percentage of positive chlorine in the sample analyzed) (4 days): 12.1% and 12.3%
%Cl (percentage of positive chlorine in the sample analyzed) (5 days): 12.3% and 12.4%
%Cl (percentage of positive chlorine in the sample analyzed) (7 days): 12.2% and 12.1%
%Cl (percentage of positive chlorine in the sample analyzed) (10 days): 11.9% and 11.8%
%Cl (percentage of positive chlorine in the sample analyzed) (14 days): 12.1% and 11.8%
%Cl (percentage of positive chlorine in the sample analyzed) (21 days): 12.0% and 12.1%
%Cl (percentage of positive chlorine in the sample analyzed) (28 days): 11.5% and 11.6%
%Cl (percentage of positive chlorine in the sample analyzed) (35 days): 11.8% and 11.6%
%Cl (percentage of positive chlorine in the sample analyzed) (51 days): 9.5%
